Experimental findings from PMC4509514, “Saccharomyces cerevisiae Ski7 Is a GTP-Binding Protein Adopting the Characteristic Conformation of Active Translational GTPases” (Structure(London, England:1993), 2015) are described below.

This experiment concerns the target T1, Ski7C (Saccharomyces cerevisiae, UniProt Q08491).
T1 construct: gene SKI7; C-terminal GTPase-like region, residues 254-747; N-terminal thioredoxin tag cut with PreScission; expressed in E. coli BL21; one molecule per asymmetric unit (SeMet form for phasing)
T1 sequence (Q08491 254-747): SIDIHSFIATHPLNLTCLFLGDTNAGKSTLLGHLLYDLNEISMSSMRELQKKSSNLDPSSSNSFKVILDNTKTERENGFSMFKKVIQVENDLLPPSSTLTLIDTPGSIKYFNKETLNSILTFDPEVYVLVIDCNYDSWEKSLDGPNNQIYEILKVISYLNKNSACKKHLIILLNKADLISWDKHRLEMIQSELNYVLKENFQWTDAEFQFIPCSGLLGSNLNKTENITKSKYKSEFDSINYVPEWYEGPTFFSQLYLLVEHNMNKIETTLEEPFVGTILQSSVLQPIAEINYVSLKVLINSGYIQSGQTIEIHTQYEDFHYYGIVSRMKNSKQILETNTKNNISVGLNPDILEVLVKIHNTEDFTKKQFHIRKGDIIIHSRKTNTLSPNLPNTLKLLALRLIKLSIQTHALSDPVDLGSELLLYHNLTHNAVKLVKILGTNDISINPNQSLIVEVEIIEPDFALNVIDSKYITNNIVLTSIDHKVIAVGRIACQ
The experiment in a line: thermal shift (Thermofluor). The format is binding. To be noted: nucleotide analog added during alkaline phosphatase treatment; nucleotide-free protein as reference. In general terms: DSF heats the sample and reads unfolding from a dye or from intrinsic fluorescence.

What is called Tm is the temperature at the midpoint of the melting transition. For the compound `Nc1nc2c(ncn2[C@@H]2O[C@H](COP(=O)(O)CP(=O)(O)O)[C@@H](O)[C@H]2O)c(=O)[nH]1` [GMPCP], the Tm turned out to be 44.0 °C.
For `Nc1nc2c(ncn2[C@@H]2O[C@H](COP(=O)(O)OP(=O)(O)NP(=O)(O)O)[C@@H](O)[C@H]2O)c(=O)[nH]1` [GMPPNP], the Tm worked out at 47.6 °C.
